Converted amounts (≈) assume the structure as drawn. Where a name gives a salt, the structure may show the parent alone.

The text below walks through data of US4005217A, “Treatment of helminth infections with substituted phenyl-thiourea derivatives” (May & Baker Limited, priority 1970, dated 1977).

For assay [1], the system named is influenza virus type A2 /Hong Kong/5/68. The format is in vivo. The following applies: mice, 250 mg/kg oral 3 hours before and 1 hour after infection; pooled lungs 24 hours after infection; greatest dilution producing agglutination.
The test system of assay [2] is Nippostrongylus brasiliensis. Briefly: Test 2: activity against roundworms in rats, treatment 24 hours after infection, worm counts 6 days after dosing. The format is in vivo. The following applies: rats; for inhibition in vivo at 1000 mg/kg / worm damage: Test 2, 1000 mg/kg oral. Here is the method: Test 2 -- Rats were infected with 100 Nippostrongylus brasiliensis larvae each, by the subcutaneous route. After 24 hours the rats were randomised and allotted to groups of 5 animals each, ready for treatment. Doses of the test compound were then administered to each group by the oral, subcutaneous and intraperitoneal routes respectively, one group of 10 animals being left untreated as a control. All the rats were killed for post-mortem worm counts 6 days after dosing. The activities, expressed in terms of the percentage reductions in mean worm load of the treated groups or damage to the worms compared with the untreated control group, are given below in Table I.

Assay [3] relates to Nippostrongylus brasiliensis eggs. Description: In vitro activity against roundworms (egg hatching and larvae). The format is cell-based. The following applies: 96 h, tested at 100, 10, 1 and 0.1 μg/ml, inhibited or delayed hatching of eggs, or killed, retarded growth or reduced activity of larvae during 4 days, read-out: M.I.C. (minimum inhibitory concentration). Here is the method: Compounds of formula I were tested at concentrations of 100 μg/ml, 10 μg/ml, 1 μg/ml and 0.1 μg/ml in small glass containers. If the compound was not soluble in water, a volatile organic medium, e.g. acetone, chloroform, ethanol or methanol was used. An amount of material appropriate for each final concentration was measured and placed in duplicate test containers and if an organic solvent was used it was allowed to evaporate completely. Nippostrongylus brasiliensis eggs were recovered by saturated saline centrifugal flotation from the faeces of rats heavily infected with third stage larvae six days previously. They were washed several times in water and suspended in water in a suitable concentration. From 25-50 eggs were placed in each container and the final volume was made up by the addition of a very dilute aqueous suspension of mouse faeces which served as the growth medium. The minimum inhibitory concentrations of each compound (M.I.C.), shown in the following Table V was the minimum concentration in μg/ml total liquid volume at which it inhibited or delayed hatching of eggs, or at which it killed, retarded growth or reduced activity of larvae during the 4 days after beginning the test.

Another assay relates to Trichostrongylus axei. Description: Activity against mature adult stages in lambs, oral treatment (Table III). The format is in vivo. The following applies: 120 h, 15 mg/kg oral, read-out: Mean percentage reduction in worm burdens, T.axei. Here is the method:
(§1) ii. 20 Worm-free lambs were each infected with H. contortus (approximately 5,600), T. axei (approximately 9,300) and T. colubriformis (approximately 10,000) infective larvae. After 22 days, 16 lambs were treated orally with 15 mg/kg animal body weight of the 8 test compounds, i.e. 2 lambs per compound, against the mature adult stages of the worms. 27 Days after infection, all 20 lambs were killed for post-mortem worm counts and the burden of each worm species in the 16 treated animals compared with those in the remaining 4 untreated control animals.

For the next assay, the system named is Haemonchus contortus. The assay is described as above. The format is in vivo. The following applies: 120 h, 15 mg/kg oral, read-out: Mean percentage reduction in worm burdens, H.contortus. Here is the method:
as §1

Assay [4] relates to Trichostrongylus colubriformis. The assay is described as above. The format is in vivo. The following applies: 120 h, 15 mg/kg oral, read-out: Mean percentage reduction in worm burdens, T.colubriformis. How it is done: as §1
Assay [5] concerns Nippostrongylus brasiliensis. Briefly: Test 1: activity against roundworms in rats, treatment 6 days after infection (patent infection), worm counts 48 hours after treatment. The format is in vivo. The following applies: for inhibition in vivo at 1000 mg/kg: Nippostrongylus brasiliensis, po, 48 h, read-out: Percentage reduction in N.brasiliensis load. Here is the method: Test 1 - Rats were infected with 100 Nippostrongylus brasiliensis larvae each, by the subcutaneous route. After 6 days, when the infection was patent, the rats were randomised and alloted to groups of 10 animals each, ready for treatment. One group was used for each dose level of the test compound and, in each experiment, one group was left untreated as a control. All the rats were killed for post-mortem worm counts 48 hours after treatment. The activity, expressed in terms of the percentage reduction in mean worm load of the treated group compared with the untreated group, is shown in Table I.

Assay [6] has as its system naturally acquired strongyle infections. Description: Effect on faecal egg output in naturally infected sheep (ewes). The format is in vivo, O. circumcincta, H. contortus and Cooperia spp. The following applies: 50 mg/kg oral. How it is done:
Faecal material from sheep with naturally acquired strongyle infections was incubated for 7 days at 27° C. followed by identification of the infective larvae present. Amongst those species present were O. circumcincta, H. contortus and Cooperia spp.
Egg counts were carried out on individual samples of faeces taken from the animals two and one day previous to dosings.
Egg counts were made using the McMaster technique. If a count by this technique was negative, a positive/negative egg flotation determination was made.
A group of 3 ewes was treated orally with 50 mg/kg animal body weight of test compound and further egg counts made at intervals for 3 weeks after treatment.

Setting [7] is: Nippostrongylus brasiliensis, 144 h, read-out: Percentage reduction in N.brasiliensis load.

As to `COC(=O)NC(=S)Nc1cc(NC(=O)OC(C)C)ccc1NC=O` [1-methoxycarbonyl-3-(2formamido-5-isopropoxycarbonylaminophenyl)thiourea], in assay [1], the Haemagglutinin titre-treated animals is on record as 1/256.

`Nc1ccccc1NC(=S)NC(=O)OCCCl` [1-(2-chloroethoxycarbonyl)-3-(2-aminophenyl)thiourea]: the Haemagglutinin titre-treated animals in assay [1] is 1/32. Also, the inhibition in vivo at 1000 mg/kg in assay [2] (setting [7]) came to 96%. For the same compound, in assay [2], the worm damage result was “worm damage”. Moreover, the MIC in assay [3] was determined as 100 µg/mL (≈ 365 µM).

On to `COC(=O)NC(=S)Nc1ccc(NC(=O)OC(C)C)cc1NC(C)=O` [1-methoxycarbonyl-3-(2-acetamido-4-isopropoxycarbonylaminophenyl)thiourea], for which the Haemagglutinin titre-treated animals in assay [1] is reported as 1/256.

With `CCCCc1ccc(NC(=S)NC(=O)OC)c(NC=O)c1` [1-methoxycarbonyl-3-(4-n-butyl-2-formamidophenyl)thiourea], in assay [3], the MIC was 0.1 µg/mL (≈ 0.323 µM). Further, the inhibition in vivo at 15 mg/kg in the assay with Trichostrongylus axei was 84.2%; in the assay on Haemonchus contortus, 84.3%; in assay [4] it was 36.9%.

Consider `CCOC(=O)NC(=S)Nc1cc(NC(=O)OC(C)C)ccc1NC(C)=O` [1-ethoxycarbonyl-3-(2-acetamido-5-isopropoxycarbonylaminophenyl)thiourea], for which the Haemagglutinin titre-treated animals in assay [1] is reported as 1/256.

`CCCCc1ccc(NC(=S)NC(=O)OC)c(NC(=O)C2CC2)c1` [1-methoxycarbonyl-3-(4-n-butyl-2-cycloproplycarbonamidophenyl)thiourea]: the MIC in assay [3] is 0.1 µg/mL (≈ 0.286 µM). The values for the inhibition in vivo at 15 mg/kg (in the assay on Trichostrongylus axei; in the assay on Haemonchus contortus; in assay [4]) were 57.6%, 58.4% and 27.1%, respectively.

Regarding `COC(=O)NC(=S)Nc1ccccc1NC(=O)C[N+](C)(C)C` [1-methoxycarbonyl-3-(2-trimethylammoniumacetamidophenyl)thiourea iodide], in assay [1], the Haemagglutinin titre-treated animals is 1/256. The worm damage result in assay [2] is recorded as “worm damage”. Further, in assay [3], the MIC was found to be 1 µg/mL.

As to `COC(=O)NC(=S)Nc1ccc(NC(=O)OC(C)C)cc1N` [1-methoxycarbonyl-3-(2-amino-4-isopropoxycarbonylaminophenyl)thiourea], in assay [5] (Test 1, 500 mg/kg oral), the worm damage result is reported as “worm damage”. Besides, the inhibition in vivo at 1000 mg/kg in assay [2] (setting [7]) was determined as 100%. Also, in assay [3], the MIC amounted to 100 µg/mL (≈ 306 µM). For the same compound, the figures for the inhibition in vivo at 15 mg/kg (in the assay on Trichostrongylus axei; in the assay with Haemonchus contortus; in assay [4]) were 94.6%, 97.7% and 83%, respectively.

For `CCCCc1ccc(NC(=O)C2CC2)c(NC(=S)NC(=O)OC)c1` [1-methoxycarbonyl-3-(2-cyclopropylcarbonamido-5-n-butylphenyl)thiourea], in assay [1], the Haemagglutinin titre-treated animals is listed as 1/128. Further, the MIC in assay [3] turned out to be 0.1 µg/mL (≈ 0.286 µM).

With `COC(=O)NC(=S)Nc1ccc(NC(=O)OC)cc1N` [1-methoxycarbonyl-3-(2-amino-4-methoxycarbonylaminophenyl)thiourea], the inhibition in vivo at 1000 mg/kg in assay [5] (Test 1, 1000 mg/kg oral) amounted to 100%; in assay [2] (setting [7]) it was 100%. Further, in assay [1], the Haemagglutinin titre-treated animals is 1/512. Further, the inhibition in vivo at 250 mg/kg in assay [2] (Nippostrongylus brasiliensis, 144 h, Test 2, 250 mg/kg oral, read-out: Percentage reduction in N.brasiliensis load) turned out to be 99%. Besides, the inhibition in vivo at 500 mg/kg in assay [2] (Nippostrongylus brasiliensis, 144 h, Test 2, 500 mg/kg oral, read-out: Percentage reduction in N.brasiliensis load) was 99%. For the same compound, the MIC in assay [3] was determined as 100 µg/mL (≈ 335 µM).

On to `CCCCc1ccc(NC(C)=O)c(NC(=S)NC(=O)OC)c1` [1-methoxycarbonyl-3-(2-acetamido-5-n-butylphenyl)thiourea], for which the worm damage result in assay [5] (Test 1, 1000 mg/kg oral) is recorded as “worm damage”; in assay [2], “worm damage”. Further, the inhibition in vivo at 1000 mg/kg in assay [2] (setting [7]) was 99%. In addition, the MIC in assay [3] was determined as 0.1 µg/mL (≈ 0.309 µM). In addition, the inhibition in vivo at 15 mg/kg with Trichostrongylus axei is 98.2%; with Haemonchus contortus, 82.1%; in assay [4], 95%.

`COC(=O)NC(=S)Nc1ccc(NC(=O)OC(C)C)cc1NC=O` [1-methoxycarbonyl-3-(2-formamido-4-isopropoxycarbonylaminophenyl)thiourea]: the inhibition in vivo at 15 mg/kg with Trichostrongylus axei came to 70.8%; with Haemonchus contortus it was 40.1%; in assay [4], 29.6%.

With `COC(=O)NC(=S)Nc1cc(NC(=O)OC(C)C)ccc1NC(C)=O` [1-methoxycarbonyl-3-(2-acetamido-5-isopropoxycarbonylaminophenyl)thiourea], the Haemagglutinin titre-treated animals in assay [1] was 1/128.

As to `COC(=O)NC(=S)Nc1ccccc1N` [1-methoxycarbonyl-3-(2-aminophenyl)thiourea], the “Percentage reduction in N.brasiliensis load” value in assay [5] (Test 1, 1000 mg/kg oral) was found to be 99%. The worm damage result in assay [5] (Test 1, 1000 mg/kg oral) was “worm damage”. In assay [3], the MIC was 0.1 µg/mL (≈ 0.444 µM). For the same compound, the “Mean faecal egg count/gm. faeces” value is 450 /gm. faeces in assay [6] (1 day after treatment); 250 /gm. faeces in assay [6] (2 days before treatment (baseline)); 250 /gm. faeces in assay [6] (4 days after treatment); 50 /gm. faeces in assay [6] (6 days after treatment); 134 /gm. faeces in assay [6] (8 days after treatment); 75 /gm. faeces in assay [6] (15 days after treatment). In addition, the “Mean faecal egg count/gm. faeces” value in assay [6] (18 days after treatment) is on record as 100 /gm. faeces; in assay [6] (20 days after treatment) it was 50 /gm. faeces; in assay [6] (22 days after treatment), 50 /gm. faeces.

In the case of `CCOC(=O)NC(=S)Nc1ccc(F)cc1N` [1-ethoxycarbonyl-3-(2-amino-4-fluorophenyl)thiourea], in assay [1], the Haemagglutinin titre-treated animals was 1/32. For the same compound, in assay [2] (setting [7]), the inhibition in vivo at 1000 mg/kg amounted to 50%. Also, the worm damage result in assay [2] is recorded as “worm damage”. Besides, the MIC in assay [3] was determined as 1 µg/mL (≈ 3.89 µM).

`CCCCN(C)CC(=O)Nc1ccccc1NC(=S)NC(=O)OCC` [1-ethoxycarbonyl-3-(2-N-n-butyl-N-methylaminoacetamidophenyl)thiourea hydrochloride]: the inhibition in vivo at 1000 mg/kg in assay [5] (Test 1, 1000 mg/kg oral) turned out to be 86%; in assay [2] (setting [7]), 99%. Moreover, the worm damage result in assay [5] (Test 1, 1000 mg/kg oral) is “worm damage”; in assay [2], “worm damage”. The Haemagglutinin titre-treated animals in assay [1] was 1/4. The MIC in assay [3] was found to be 1 µg/mL.

Turning to `CCCCc1ccc(NC=O)c(NC(=S)NC(=O)OC)c1` [1-methoxycarbonyl-3-(5n-butyl-2-formamidophenyl)thiourea], in assay [1], the Haemagglutinin titre-treated animals is on record as 1/32. Moreover, in assay [2] (setting [7]), the inhibition in vivo at 1000 mg/kg is 96%. The worm damage entry in assay [2] is “worm damage”. The MIC in assay [3] stood at 0.1 µg/mL (≈ 0.323 µM).

Take `CCOC(=O)NC(=S)Nc1ccccc1NC(=O)CN(C)C` [1-ethoxycarbonyl-3-(2-dimethylaminoacetamidophenyl)thiourea hydrochloride]: the inhibition in vivo at 1000 mg/kg in assay [5] (Test 1, 1000 mg/kg oral) came to 85%; in assay [2] (setting [7]) it was 98%. Besides, the inhibition in vivo at 125 mg/kg in assay [2] (Nippostrongylus brasiliensis, ip, 144 h, Test 2, 125 mg/kg intraperitoneal, read-out: Percentage reduction in N.brasiliensis load) was 85%. In addition, in assay [2] (Nippostrongylus brasiliensis, sc, 144 h, Test 2, 100 mg/kg subcutaneous, read-out: Percentage reduction in N.brasiliensis load), the inhibition in vivo at 100 mg/kg turned out to be 76%. Also, the MIC in assay [3] was 0.1 µg/mL.
